Laboratory results from patent US20080057010A1, “METHOD FOR SKIN CARE” (NULIV SCIENCE LTD., priority 2006, published 2008).

Legend:
[1] = tested on: HaCaT cells; experiment: Glucosamine uptake assay in HaCaT cells; format: cell-based, human; details: 0.1 μM; for Uptake rate (glucosamine): 48 h treatment; for Percentage (%) of control glucosamine uptake: relative to control
Experimental: In glucosamine uptake test, HaCaT cells were seeded into 24-well plate at a density of 3×10^4 cells/well and cultured for 24 h. The cells were then treated in the absence (solvent control) or presence of various concentrations of astragalosides for another 48 h. The treated cells were then washed twice with PBS and incubated in glucose and serum free medium (GSFM). After 2 h, the cells were replaced with fresh GSFM containing 0.2 μCi of [^14C]-Glucosamine (American Radiolabelled Chemicals Inc, ARC, St. Louis, Mo., USA). At the designated time interval, the cells were washed twice with GSFM containing cold glucosamine and then lysed in 200 μL 2% SDS. Cell lysates were centrifuged at 15000 g for 15 min. Intracellular uptaken glucosamine was determined by transferring 10 μL of the cell lysate to filter-bottemed UniFilter plates (Perkim-Elmer) and counted. Protein concentration of the samples was measured using the BCA protein assay kit as described above. Glucosamine accumulated in the cells was calculated and normalized to protein concentration and uptake rate was expressed as counts per minute per microgram of cell protein (cpm/min/μg).

[2] = tested on: collagen III; experiment: Collagen III expression and secretion in human HaCaT cells (western blot); format: cell-based; details: relative to 0 = 1.00
Experimental: The Spontaneously transformed human keratinocyte cell lines HaCaT cells were grown at 37° C. in a humidified incubator under 5% CO2 and 95% air in culture medium such as Dulbecco Modified Eagle Medium (DMEM) supplemented with 10% Fetal Bovine Serum (FBS), 100 IU/mL penicillin, 100 μg/mL of streptomycin, 2 mM sodium pyruvate and 1% Non-Essential Amino Acids (NEAA). The culture medium was replaced every other day. After confluence, the cells were subcultured following trypsinization. For subcultures cells were harvested after brief treatment with 0.1% trypsin/ethylenediaminetetraacetic acid (EDTA) solution and seeded at a dilution of 1:10. Cells between passages 12 and 45 were used for studies. The cells were seeded and incubated for 24 h before treated with the astragalosides for 24 h. Control cultures were maintained in medium supplemented with vehicle (dimethyl sulfoxide (DMSO) 0.1%). No growth and differentiation effects of DMSO were observed under these culture conditions.
(§1) The cells were treated with pure compounds such as astragaloside I (AS 1), astragaloside II (AS2), astragaloside III (AS3), astragaloside IV (AS4), astragaloside VI (AS6), isoastragaloside I (isoAS1), isoastragaloside II (isoAS2), and cycloastragenol 6-O-β-D-glucopyranose (AA) at concentrations of 0-10 μM. Alternatively, the cells were also treated with the crude extracts, such as butanol fraction and water insoluble fraction of Astragalus membranaceus at concentrations of 0, 1, 10, and 40 μg/mL. The cells were treated with the indicated compounds or the extracts for 24 h before harvested for analysis of collagen I and III expressed in the whole cell extract or secreted into the culture medium.
(§2) Western blot analysis was carried out on both of cultured medium and cell lysates. The cells were plated on 6-cm dishes at a density of 1×10^6 cells/dish for 24 h prior to treatment with indicated concentrations of astragalus triterpenoids as indicated for another 48 h. The conditioned culture mediums were then centrifuged, 2-fold concentrated and collected for assay of collagens and MMPs secreted into the culture medium. The cells were washed and lysed in 0.2 mL of lysis buffer (1% NP-40, 50 mM Tris-HCl, pH 7.4, 180 mM NaCl, 1 mM EDTA, 1 mM PMSF, 1 mM NaF, 10 mM Na3VO4) for 30 min at 4° C. After centrifuging at 17500 g for 15 min, the supernatants of cell lysate were also collected. Protein concentration of the samples were measured using the bicinchoninic acid (BCA) protein assay kit according to the manufacturer's protocol (Pierce, Rockford, Ill., USA). Equal amount of protein samples of concentrated conditioned medium (100 μg) or cell lysate supernatants (50 μg) were mixed with an appropriate volume of 4×SDS sampling buffer and separated by 8% SDS-PAGE gel. The protein bands separated in the SDS-PAGE gel were blotted onto a polyvinylidene fluoride (PVDF) membrane. The blotted PVDF membrane was washed twice and blocked in freshly prepared Tris-buffered saline (TBS) containing 0.1% Tween-20 and 7% skim milk (TBST) for 2 h at room temperature. The PVDF membrane was then incubated with either antibodies against collagen I and III or the housekeeping protein α-tubulin (Santa Cruz Biotechnology, Santa Cruz, Calif.) for 18 h at 4° C. Horseradish peroxidase-conjugated anti-goat antibody was used as secondary antibody. Signals were visualized by an enhanced chemiluminescence kit (Clonetech, Palo Alto, Calif., USA) followed by exposure to X-ray films.
The collagen III was also over-expressed in the human HaCaT cells treated with different doses (0.01, 0.1 and 1 μM) of the astragalosides, such as AS1, AS2 and AS3. Similarly, the collagen III was over-expressed in the human HaCaT cells treated with various dosages (1, 10 and 40 μg/mL) of the crude extract as shown in Table 1B. On the other hand, the amount of collagen III secreted into the medium was measured to determine the effect on cellular release of collagen III. […]

[3] = tested on: collagen III; experiment: Collagen III expression and secretion in human HDF cells (western blot); format: cell-based; details: relative to 0 = 1.00
Experimental: Primary human dermal fibroblasts cells (HDF) were purchased from Cascade Biologics (Portland, Oreg., USA) and cultured in medium 106 supplemented with 10% fetal bovine serum (FBS), 100 IU/mL penicillin, 100 μg/mL of streptomycin. The cells from passages 4 to 10 were used for this study. Culture medium was replaced every other day. After confluence, the cells were subcultured following trypsinization. For subcultures cells were harvested after brief treatment with 0.1% trypsin/EDTA solution and seeded at a dilution of 1:10. The cells were seeded at 1×10^5 cells in 6-well culture plate for 24 h before treated with astragalosides or crude extracts, such as butanol fraction and water insoluble fraction of Astragalus membranaceus for the indicated time periods. Control cultures were maintained in medium supplemented with vehicle (dimethyl sulfoxide, DMSO, 0.1%). No growth and differentiation effects of DMSO were observed under these culture conditions.
as §1, §2

Molecule: CC(=O)O[C@H]1[C@H](O[C@H]2CC[C@]34C[C@]35CC[C@]3(C)[C@@H]([C@@]6(C)CC[C@@H](C(C)(C)O)O6)[C@@H](O)C[C@@]3(C)[C@@H]5C[C@H](O[C@@H]3O[C@H](CO)[C@@H](O)[C@H](O)[C@H]3O)[C@H]4C2(C)C)OC[C@@H](O)[C@@H]1O [AS2, astragaloside II]
- Uptake rate (glucosamine) [1]: 0.9561 ± 0.0918 CPM/μg protein
- Percentage (%) of control glucosamine uptake [1]: 116.00%
- Collagen III in cell ([2]; 0.01 μM): 1.36
- Collagen III in cell ([2]; 0.1 μM): 1.44
- Collagen III in cell ([2]; 1 μM): 1.49
- Collagen III in medium ([3]; 0.01 μM): 1.26
- Collagen III in medium ([3]; 0.1 μM): 1.74
- Collagen III in medium ([3]; 1 μM): 0.94

Molecule: CC(C)(O)[C@@H]1CC[C@](C)([C@H]2[C@@H](O)C[C@@]3(C)[C@@H]4C[C@H](O)[C@H]5C(C)(C)[C@@H](O[C@@H]6OC[C@@H](O)[C@H](O)[C@H]6O[C@@H]6O[C@H](CO)[C@@H](O)[C@H](O)[C@H]6O)CC[C@@]56C[C@@]46CC[C@]23C)O1 [AS3, astragaloside III]
- Uptake rate (glucosamine) [1]: 1.0129 ± 0.0371 CPM/μg protein
- Percentage (%) of control glucosamine uptake [1]: 122.90%
- Collagen III in cell ([2]; 0.01 μM): 0.86
- Collagen III in cell ([2]; 0.1 μM): 1.22
- Collagen III in cell ([2]; 1 μM): 2.12
- Collagen III in medium ([3]; 0.01 μM): 2.18
- Collagen III in medium ([3]; 0.1 μM): 1.79
- Collagen III in medium ([3]; 1 μM): 1.51

Molecule: CC(C)(O)[C@@H]1CC[C@](C)([C@H]2[C@@H](O)C[C@@]3(C)[C@@H]4C[C@H](O[C@@H]5O[C@H](CO)[C@@H](O)[C@H](O)[C@H]5O)[C@H]5C(C)(C)[C@@H](O[C@@H]6OC[C@@H](O)[C@H](O)[C@H]6O)CC[C@@]56C[C@@]46CC[C@]23C)O1 [AS4, astragaloside IV]
- Uptake rate (glucosamine) [1]: 0.8931 ± 0.0918 CPM/μg protein
- Percentage (%) of control glucosamine uptake [1]: 108.36%
- Collagen III in medium ([2]; 0.01 μM): 0.79
- Collagen III in medium ([2]; 0.1 μM): 1.13
- Collagen III in medium ([2]; 1 μM): 1.16

Molecule: CC(C)(O)[C@@H]1CC[C@](C)([C@H]2[C@@H](O)C[C@@]3(C)[C@@H]4C[C@H](O[C@@H]5O[C@H](CO)[C@@H](O)[C@H](O)[C@H]5O)[C@H]5C(C)(C)[C@@H](O[C@@H]6OC[C@@H](O)[C@H](O)[C@H]6O[C@@H]6O[C@H](CO)[C@@H](O)[C@H](O)[C@H]6O)CC[C@@]56C[C@@]46CC[C@]23C)O1 [AS6, astragaloside VI]
- Uptake rate (glucosamine) [1]: 0.8471 ± 0.0278 CPM/μg protein
- Percentage (%) of control glucosamine uptake [1]: 102.78%
- Collagen III in medium ([2]; 0.01 μM): 4.55
- Collagen III in medium ([2]; 0.1 μM): 4.27
- Collagen III in medium ([2]; 1 μM): 3.86
- Collagen III in cell ([3]; 0.01 μM): 1.65
- Collagen III in cell ([3]; 0.1 μM): 1.37
- Collagen III in cell ([3]; 1 μM): 0.95

Molecule: CC(=O)O[C@H]1[C@H](O[C@H]2CC[C@]34C[C@]35CC[C@]3(C)[C@@H]([C@@]6(C)CC[C@@H](C(C)(C)O)O6)[C@@H](O)C[C@@]3(C)[C@@H]5C[C@H](O[C@@H]3O[C@H](CO)[C@@H](O)[C@H](O)[C@H]3O)[C@H]4C2(C)C)OC[C@@H](OC(C)=O)[C@@H]1O [isoAS1, isoastragaloside I]
- Uptake rate (glucosamine) [1]: 0.9589 ± 0.0665 CPM/μg protein
- Percentage (%) of control glucosamine uptake [1]: 116.34%
- Collagen III in medium ([2]; 0.01 μM): 3.32
- Collagen III in medium ([2]; 0.1 μM): 4.41
- Collagen III in medium ([2]; 1 μM): 6.53

Molecule: CC(=O)O[C@@H]1[C@@H](O)[C@H](O[C@H]2CC[C@]34C[C@]35CC[C@]3(C)[C@@H]([C@@]6(C)CC[C@@H](C(C)(C)O)O6)[C@@H](O)C[C@@]3(C)[C@@H]5C[C@H](O[C@@H]3O[C@H](CO)[C@@H](O)[C@H](O)[C@H]3O)[C@H]4C2(C)C)OC[C@H]1O [isoAS2, isoastragaloside II]
- Uptake rate (glucosamine) [1]: 0.9226 ± 0.0668 CPM/μg protein
- Percentage (%) of control glucosamine uptake [1]: 111.94%
- Collagen III in medium ([3]; 0.01 μM): 1.00
- Collagen III in medium ([3]; 0.1 μM): 1.07
- Collagen III in medium ([3]; 1 μM): 1.18

Molecule: astragaloside I [AS1]
- Uptake rate (glucosamine) [1]: 1.0482 ± 0.0560 CPM/μg protein
- Percentage (%) of control glucosamine uptake [1]: 127.18%
- Collagen III in cell ([2]; 0.01 μM): 1.29
- Collagen III in cell ([2]; 0.1 μM): 1.59
- Collagen III in cell ([2]; 1 μM): 2.63
- Collagen III in cell ([3]; 0.01 μM): 1.16
- Collagen III in medium ([3]; 0.01 μM): 1.38
- Collagen III in cell ([3]; 0.1 μM): 1.08
- Collagen III in medium ([3]; 0.1 μM): 1.19
- Collagen III in cell ([3]; 1 μM): 1.18
- Collagen III in medium ([3]; 1 μM): 1.77
